Test results as given in a melting point compilation (Tetko et al.; mined from patent text by program, amines drawn as free bases though some values may be those of a salt).

Row | Compound | melting point [°C]
1 | COCC(=O)NCc1cccc2c1CN(C1CCC(=O)NC1=O)C2=O (centres undefined) | 232 to 234
2 | COC(=O)c1cc(C(=O)c2cc(C(=O)OC)c(OC)c([N+](=O)[O-])c2)cc([N+](=O)[O-])c1OC | 96 to 98
3 | CCc1nccn1-c1ccc(NC(=O)NC)cc1 | 228 to 232
4 | Cn1ncc2ccccc2c1=O | 111 to 112
5 | CCCCOc1nc(N)c2[nH]c(=O)n(CCS(=O)(=O)c3cccc(CC(=O)OC)c3)c2n1 | 246 to 247
6 | CC(C)N(Cc1ccc2cc(NC(=O)c3ccc(-c4ccc(Cl)cc4)cc3)ccc2c1)C(C)C | 246 to 250
7 | CCOC(=O)C(C#N)=NC(=CN1CCOCC1)CC | 127 to 128
8 | CC(C)(C)c1cc(C(O)c2ccccc2)cc(C(C)(C)C)c1O (centres undefined) | 117 to 119
9 | CC(=O)SCSc1nnn[nH]1 | 90
10 | CN1CC(C(=O)NCc2cccnc2)CC2c3cccc4c3c(cn4C)CC21 (centres undefined) | 185 to 187
11 | CCC(C(C)C)C(CN)CC(=O)O (centres undefined) | 170 to 180
12 | CCOC(=O)c1c(-c2ccc(F)cc2)c2ccccc2[nH]c1=O | 204 to 206
13 | Nc1nc(CCc2ccccc2)nc2nc(-c3ccco3)nn12 | 235 to 237
14 | CC(Oc1ccc2c(c1)OCC(Cc1ccccn1)C2O)c1ccc2ccccc2n1 (centres undefined) | 73
15 | CCCCN(CCCC)Cc1nc(-c2ncn3c2[C@@H]2CCN2C(=O)c2c(Cl)cccc2-3)no1 | 120 to 125
16 | COc1ccc(-c2ccc3n[nH]c(=O)n3n2)cc1F | 289 to 290
17 | CCOC(=O)c1c(N)oc(-c2ccc([N+](=O)[O-])cc2)c1C(=O)OCC | 174 to 177
18 | CC(C)[C@@H]1CC[C@@H](C)C[C@H]1C(=O)Nc1ccc(CC#N)cc1 | 146 to 150
19 | O=C(O)C(c1ccc(F)cc1)N1C(=O)c2ccccc2C1=O (centres undefined) | 174 to 180
20 | O=C(OCC(Cl)(Cl)Cl)N1C2CCC1CC(Sc1ccc(Cl)cc1)C2 (centres undefined) | 70 to 71.5
21 | CCCCNc1c(C)cccc1C | 124 to 131
22 | O=c1cc(Cl)cc(Cl)o1 | 43 to 45
23 | CS(=O)(=O)Nc1cc2occ(-c3cscn3)c(=O)c2cc1Oc1ccccc1 | > 250
24 | CN(Cc1ccccc1)c1cc(Oc2cccc(C(F)(F)F)c2)nc(C(=O)Nc2ccccc2)c1 | 111 to 114
25 | CC(C)(O)CCOc1ccc(/C=C/C(=O)O)c(Oc2ncc(C(F)(F)F)cc2Cl)c1 | 192 to 194

Row | Compound | melting point [°C]
26 | CCCNC(=O)Nc1ccc(C(=O)OC)c(NC(=O)NC(C)C)c1 | 94 to 95
27 | CCNc1cccc2c1C(=O)c1cccc(NCC)c1C2=O | 193 to 195
28 | CCOc1ccc2c(c1)n(C1CCCCC1)c(=O)n2S(=O)(=O)c1ccc(C(=O)NC(C)(C)CO)cc1OC | 218
29 | O=C(O)c1cc(NCCCc2ccc([N+](=O)[O-])cc2)ccc1O | 229 to 231
30 | Cc1ccc(S(N)(=O)=O)cc1C(O)CN=[N+]=[N-] (centres undefined) | 98
31 | CCN1Cc2c(cc3ccc4c(c3c2-c2ccc3c(c2)OCO3)OCO4)C1=O | 210 to 212
32 | NC(=O)c1ccc(C(=O)N2Cc3cccn3Cc3ccccc32)cc1 | 226 to 228
33 | O=C1Cc2c([nH]c3ccc(Br)cc23)-c2ccccc2N1 | > 300
34 | CCN(CC)C(=O)c1c(OC)cccc1-c1ccccc1 | 79 to 80
35 | CC(C)Oc1ccc(CCCOc2cc(CCC(=O)O)n(-c3ccccc3)n2)c(OCc2ccc(C(F)(F)F)cc2)c1 | 118 to 119
36 | COc1ccc(C(O)(C(F)(F)F)C(F)(F)F)cc1C=CC(=O)O | 184 to 186
37 | CCOC(=O)N1CC[C@H](Oc2cccc(F)c2)[C@H](c2ccccc2)C1 (relative stereo) | 74 to 76.5
38 | CN(CC(=O)c1ccc(N2CCOCC2)cc1)C(=O)OC(C)(C)C | 87 to 89
39 | CCC1(C)CC(=O)C(C(=O)Nc2ccc(Cl)c(Cl)c2)C(=O)C1 (centres undefined) | 74 to 75
40 | CCOc1cc2c(O)c(C)cnc2nc1C | 238 to 242
41 | Cc1ccc(Cl)nc1N1CCCNC1=C[N+](=O)[O-] | 176 to 183
42 | COc1ccc(S(=O)(=O)C(CCCCc2ccccc2)(CC(=O)O)c2ccccc2)cc1 (centres undefined) | 75 to 78
43 | O=C(Oc1ccccc1OC(=O)c1cc(O)c(O)c(O)c1)c1cc(O)c(O)c(O)c1 | 210
44 | C=CCc1c(O)ccc2c1CCCC2=O | 145 to 148
45 | CCc1cn(-c2nccs2)c2c1C(=O)CC(C)(C)C2 | 58 to 60
46 | N#CCc1cc(-c2ccc(Cl)cc2)n(-c2ccc(S(N)(=O)=O)cc2)n1 | 212 to 214
47 | CC(=O)O/N=C1\CCc2ccccc2C1=Cc1ccc(S(C)(=O)=O)cc1 | 70 to 73
48 | O=C(c1ccccc1)N1CCc2[nH]c3cccc(-c4ccccc4F)c3c2CC1 | 241 to 244
49 | Cc1ccc(NC(=O)c2ccc(C3OCC(SC(C)C(O)(Cn4cncn4)c4ccc(F)cc4F)CO3)cc2)cc1 (centres undefined) | 101
50 | CC(C)NC(=O)NC[C@H](C)NC(=O)OC(C)(C)C | 101

Row | Compound | melting point [°C]
51 | Cn1c(C(F)(F)F)cc(=O)n(-c2cc(OC(=O)CCC(=O)OCCCl)c(Cl)cc2F)c1=O | 94 to 96
52 | COCOc1ccc(C=CC(=O)c2c(OCOC)cc(OCOC)c(CC=C(C)C)c2O)cc1OC | 62.5 to 63.5
53 | O=C(Nc1cccc2[nH]ccc12)c1ccccc1OCC1CO1 (centres undefined) | 171
54 | COc1ccc(Nc2nc(O)c3sccc3n2)c(C)c1 | 246 to 248
55 | CC(C)C(=O)NC1c2cc3nonc3cc2OC(C)(C)C1O (centres undefined) | 194 to 196
56 | CC(=O)OCc1nc([N+](=O)[O-])c(Br)n1C | 92 to 97
57 | Cc1ccc2c(n1)C(=O)N(c1cccc(S(C)(=O)=O)c1C)C2=O | 237 to 239
58 | CCCCCCCCCCCCN=C1SC(=CC(=O)O)C(=O)N1CCCCCCCCCCCC | 71 to 72
59 | CSC(C#N)c1cccc(C(=O)c2ccccc2)c1N (centres undefined) | 107 to 108
60 | NS(=O)(=O)OCCCN1CCC(C(O)(c2ccc(F)cc2)c2ccc(F)cc2)CC1 | 78 to 81
61 | Cc1nc(-c2ccccc2)nc(-c2cccc([N+](=O)[O-])c2)c1C(=O)N1CCN(C)CC1 | 153 to 155
62 | Cc1nc(Cl)c2n1-c1ccccc1C(c1ccccc1F)N(C)C2 (centres undefined) | 156 to 158
63 | O=C1N(c2c(Cl)cccc2Cl)Cc2cnc(Nc3ccccc3)nc2N1c1ccccc1 | 138
64 | CCCCCCCC(=O)NNC(=O)N1Cc2ccccc2Oc2ccc(C(F)(F)F)cc21 | 97 to 100
65 | Cc1nsc(SCC2=C(C(=O)OC(c3ccccc3)c3ccccc3)N3C(=O)C(N)(N)C3SC2)n1 (centres undefined) | 157 to 159
66 | COc1cccc2c1OCN(CCc1ccccc1Cl)C2 | 79 to 81
67 | Cc1nn(C)c(O)c1C(=O)c1ccc(Cl)cc1Cl | 165 to 166
68 | CS(=O)(=O)c1ccc(-n2cc(C(F)(F)F)nc2-c2ccc(-c3ccco3)cc2)cc1 | 82 to 84
69 | CC1(C)COC(=O)[C@@H]1Oc1ccc(C#N)c(C(F)(F)F)c1 | 89.9 to 90.7
70 | CC1(C)CCC(C)(C)c2cc(-c3cc4ccc(C(=O)O)cc4s3)ccc21 | 297
71 | Cc1cc(Br)ccc1NC(=O)c1cc([N+](=O)[O-])ccc1NC(=O)CF | 247 to 249
72 | CCCCCCCCCCCCOC(=O)CC(O)C(=O)OCCCCCCCCCCCC (centres undefined) | 27 to 30
73 | O=c1c2c(OCC3CS3)cc(OCC3CS3)cc2oc2ccc3ccccc3c12 (centres undefined) | 225 to 226
74 | COCCn1cc(C=O)c(-c2ccc([N+](=O)[O-])o2)n1 | 137 to 138
75 | CCOc1nc2cccc(C(=O)OC)c2n1Cc1ccc(-c2ccccc2-c2nc(=O)o[nH]2)cc1 | 186 to 187

Row | Compound | melting point [°C]
76 | Nc1ccc(F)cc1CCN1CCN(c2nsc3ccccc23)CC1 | 115
77 | O=C(OC(c1ccccc1)c1ccccc1)C12CCC1CN(Cc1ccccc1)C2 (centres undefined) | 96 to 99
78 | Cc1[nH]c(=O)oc1C(=O)c1ccc(-n2ccnc2)cc1 | 320
79 | Clc1ccccc1CCN1CCN(c2n[nH]c3c2CCc2ccccc2-3)CC1 | 134 to 136
80 | O=S=Nc1ccc(C(=O)Cl)cc1 | 31
81 | O=C(O)Cc1ccc(OCc2ccc(F)cc2C(=O)O)cc1 | 195 to 197
82 | CCCCCCCCCCCCCCOc1ccc(C(=O)O)cc1OCCCCCCCCCCCCCC | 112 to 113
83 | Cc1cc(C(=O)O)ccc1Sc1cc2c(cc1C)C(C)(C)CCC2(C)C | 217 to 218
84 | Cc1ccc2oc(-c3ccccc3-c3nnnn3C(c3ccccc3)(c3ccccc3)c3ccccc3)c(Br)c2c1 | 199 to 200
85 | COc1cc(-c2nc(-n3c(C)ccc3C)sc2SCC2CCCC2)c(OC)cc1C | 108
86 | N#CC1=C(Cl)CN(COC(=O)CNC(=O)CNC(=O)c2ccccc2)C1(c1ccc(Cl)cc1)C(F)(F)F (centres undefined) | 65 to 67
87 | O=C(Nc1ccccn1)Nc1cccc2c1C1CC(O)CCN1C2=O (centres undefined) | 220
88 | COc1cc(CO)cc(OC)c1Br | 100 to 102
89 | Cc1cc(C)n2nc(S(=O)(=O)Cl)nc2c1 | 125 to 126
90 | CCCCn1c(=O)c2[nH]c(N3CCCCC3)nc2n(CCCC)c1=O | 221
91 | CC(CCl)(CCl)c1cc(Cl)nnc1Cl | 92 to 94
92 | CCCCCCCCCCCCCCCC(=O)NCCCCCCCCCCCC(=O)O | 119 to 121
93 | O=C(Nc1ccccc1)O[C@@H]1CN=C(c2cccs2)O[C@H]1c1ccccc1 (racemic) | 98
94 | CC1(C)CON(Cc2ccc(NC(=O)c3ncccc3C(=O)O)cc2Cl)C1=O | 94 to 96
95 | COc1ccc(-n2nc(CCC(=O)O)cc2-c2ccc(Cl)cc2)cc1 | 126 to 128
96 | CC(C)(C#N)c1cc(-n2cncc2C#N)cc(C(C)(C)C#N)c1 | 88 to 90
97 | CCOCCOCCOc1ccc(C(=O)CN(Cc2ccccc2)Cc2ccccc2)cc1C(N)=O | 91.5 to 92.5
98 | O=C(Nc1ccccc1-c1ccccc1)OCCCC(=O)c1ccccc1 | 87 to 89
99 | O=C(Nc1cccc2c1C(=O)N(CC(=O)N1CCC(CO)CC1)C2=O)c1ccc(Cl)s1 | 198
